In patent US20230140200A1, “COMPOSITIONS AND METHODS FOR DETECTING CELLS UNDERGOING FERROPTOSIS USING AN ANTIBODY” (THE TRUSTEES OF COLUMBIA UNIVERSITY IN THE CITY OF NEW YORK, priority 2020, published 2023):

Experiments:
[1] = tested on: TfR1 mRNA; assay: qPCR of TfR1 transcripts; type: cell-based, human; conditions: 8 h, HT-1080 cells
Procedure: HT-1080 cells were seeded in 6-well plates at a density of 400 k cells/well and incubated overnight. The following day, IKE or RSL3 were diluted into wells from stock solutions and treated for indicated time periods. Following treatment, cells were rinsed in cold PBS, trypsinized, and pelleted in Eppendorf tubes. RNA was isolated from cell pellets using Qiagen's RNeasy extraction kit, following manufacturer's instructions (Qiagen). RNA quantity and quality was evaluated by a nanodrop spectrophotometer (Thermo Fisher Scientific). cDNA was generated from 2 μg of total RNA, which was then diluted ten-fold and used as a template in qPCR reactions on a Viia7 Real-Time system. Gene specific primers were used as follows: TfR1 FW: 5′ […] 3′ (SEQ ID No: 18); TFR1 RV: 5′ […] 3′ (SEQ ID No: 19); GAPDH FW: 5′ […] 3′ (SEQ ID No: 20); GAPDH RV: 5′ […] 3′ (SEQ ID No: 21).

[2] = tested on: HT-1080 cells; assay: Immunofluorescence staining of treated cells, quantification of membrane intensity; type: cell-based, human; conditions: 8 h
[3] = tested on: HT-1080 cells; assay: Machine-learning training image set, TfR1 membrane fluorescence intensity; type: cell-based, human; conditions: fixed at 10-20% cell death
Procedure: Immunofluorescence (IF). HT-1080 cells were treated with 1 μM RSL3, 20 μM IKE, or 1 μM STS on poly-lysine-coated coverslips (Sigma Aldrich P4832) in 24-well plates. […] The cells were fixed and permeabilized with 4% PFA in PBS with 0.1% Triton X-100 (PBT), with 200 μL per well. The plates were covered with foil, and the cells were incubated and shaken at room temperature for 15-20 min. The PFA was disposed of safely, and the cells were washed with PBT three times. The cells were blocked with 5% normal goat serum (NGS) (ThermoFisher 50197Z) in PBT for 1 h at room temperature. The cells were then incubated with mouse 3F3 anti-Ferroptotic Membrane Antibody (3F3-FMA) at 1:500 dilution in PBT with 1% bovine serum albumin (BSA) and 5% NGS at 4° C. overnight. The cells were washed with PBT for 5 min three times. The cells were then incubated with goat anti-mouse IgG (H+L) Highly Cross-Adsorbed Secondary Antibody, Alexa Fluor 594 (Thermo Fisher Scientific Cat #A-11032, RRID:AB_2534091) at 1:200 dilution and FITC-phalloidin at 1:1000 dilution in PBT with 1% BSA for 1 h at room temperature. […]
Automated image analysis. […] Nuclei were detected via the DAPI signal. […] In a next step, morphology/symmetry features, texture (SER features) and intensity properties of the DAPI, FITC and red channel were calculated for each cell region (nuclei, cytoplasm, and membrane). […]

[4] = tested on: HT-1080 cells; assay: Nuclear shrinkage by immunofluorescence (DAPI nuclei, CellProfiler); type: cell-based, human; conditions: vs DMSO
[5] = tested on: HT-1080 cells; assay: Cell death after RSL3 incubation; type: cell-based, human; conditions: 1 μM, 4 h incubation
[6] = tested on: HT-1080 cells; assay: High-content analysis of nucleus area; type: cell-based, human; conditions: RSL3 group vs DMSO group
Procedure: For the screening with five technical replicates, HT-1080 cells were washed with PBS, trypsinized and resuspended in cell culture medium. The cell suspension (2,000 cells in 50 μl per well) was dispensed into collagen (Sigma-Aldrich, St. Louis, Mass., USA) pre-coated 384-well plates (PerkinElmer 384-well CellCarrierUltra™). 24 h after seeding, medium was exchanged to medium containing 0.3 μM RSL3 (1 mM stock solution) dissolved in 100% dimethyl sulfoxide (DMSO) or DMSO alone. 50 μl medium with 0.3 μM RSL3/DMSO was added per well. The cells were then incubated (37° C.; 5% CO2) for 2.5 h prior to fixation and antibody staining. […] Finally, plates were recorded using the automated Operetta® microscope with the 20× high NA objective for high-resolution images (PerkinElmer, USA). For quantification, three images of each condition were recorded using three channels (Hoechst, Alexa488, TRITC). […] Quantification on cell number, cytoplasmic intensity, nucleus intensity and spot number per cell was performed using the Columbus Software (PerkinElmer, USA).
Multiparametric image analysis was performed using Columbus Software 2.8.0 (PerkinElmer). […] In a next step we have calculated the morphology and Alexa488 fluorescence intensity in each cell region (nucleus and cytoplasm). […] Each spot was detected as a small region within the corresponding image by having a higher intensity than its surrounding area. […]

[7] = tested on: OCI-LY7 cells; assay: C11-BODIPY lipid ROS flow cytometry; type: cell-based; conditions: 5 μM PE, 19 h at 37° C.
Procedure: 6 L of media (1% Pen-Strep 10% FBS and 89% RPMI with L-glutamine) containing 400 million OCI-LY7 (DSMZ Cat #ACC-688, RRID:CVCL_1881) cells/L were treated with 5 μM PE (piperazine erastin). Cells were incubated for 19 h at 37° C., then production of lipid ROS was confirmed using BODIPY-C11 by flow cytometry. Ferroptotic cells were pelleted in centrifuge at 1000 rpm for 10 min at 25° C. Cells were resuspended in 1 mL lysis buffer with a pan-protease inhibitor, lysed using a dounce homogenizer. 70% cell lysis was confirmed by microscope. Pellet containing the nuclear fraction and unlysed cells was obtained by centrifuge at 700×g for 10 min at 4° C. Supernatant was spun at 700×g for 10 min at 4° C. Supernatant was then transferred to a new tube and placed in centrifuge at 10,000×g for 45 min at 4° C. Pellet consisting of total membrane was resuspended in upper phase solution. Lower phase was added and mixture was incubated on ice for 5 min. Mixture was spun at 1000×g for 5 min at 4° C. […]
Cells were resuspended in […] HBSS containing 2 μM C11-BODIPY (BODIPY 581/591 C11) (Thermo Fisher Scientific, D3861) and incubated at 37° C. for 15 min. […] Fluorescence intensity was measured on the FL1 channel with gating to record live cells only (gate constructed from DMSO treatment group). A minimum of 10,000 cells were analyzed per condition. […]

CC(C)Oc1ccc(C(=O)Cn2ccnc2)cc1-n1c(CN2CCN(C(=O)COc3ccc(Cl)cc3)CC2)nc2ccccc2c1=O [IKE, imidazole ketone erastin]
level of TfR1 mRNAs ([1]; 10 μM): didn't increase | change of 3F3-FMA staining pattern caused by inducer ([2]; 10 μM): same changes of 3F3-FMA pattern were observed | TfR1 membrane fluorescence intensity after treatment ([3]; 20 μM): significant increase | nuclei shrank (mean nucleus area) ([4]; 10 μM, 8 h incubation): 12%

CC(C)(C)OO [tBuOOH, reference compound]
change of 3F3-FMA staining pattern caused by inducer ([2]; 100 μM): same changes of 3F3-FMA pattern were observed

CC1(CCO)CC2(CCC(C(C)(C)C)CC2)OO1 (stereo not drawn) [FINO2, ferroptosis inducer endoperoxide, reference compound]
change of 3F3-FMA staining pattern caused by inducer ([2]; 15 μM): same changes of 3F3-FMA pattern were observed | nuclei shrank (mean nucleus area) ([4]; 15 μM, 8 h incubation): 49%

COC(=O)c1ccc([C@@H]2c3[nH]c4ccccc4c3C[C@@H](C(=O)OC)N2C(=O)CCl)cc1 [RSL3, (1S, 3R)-RSL3]
level of TfR1 mRNAs ([1]; 1 μM): didn't increase | HT-1080 cells died [5]: 30% | TfR1 membrane fluorescence intensity after treatment ([3]; 1 μM): significant increase | nuclei shrank (mean nucleus area) ([4]; 1 μM, 4 h incubation): 27% | decrease of average nucleus area [6]: 17%

CC(C)Oc1ccc(CN2CCNCC2)cc1-n1c(CN2CCN(C(=O)COc3ccc(Cl)cc3)CC2)nc2ccccc2c1=O [PE, piperazine erastin]
lipid peroxides (C11-BODIPY fluorescence) [7]: increase in lipid peroxides

O=S(=O)(NC1CCCCC1)c1ccc2c(c1)C(=NO)c1cc(S(=O)(=O)NC3CCCCC3)ccc1-2 [FIN56, ferroptosis inducer 56, reference compound]
change of 3F3-FMA staining pattern caused by inducer ([2]; 10 μM): same changes of 3F3-FMA pattern were observed | nuclei shrank (mean nucleus area) ([4]; 10 μM, 8 h incubation): 17%
